These results are taken from PubChem BioAssay AID212 (DTP/NCI, 2004).

Where “and” joins values, the source holds several entries; their conditions need not be identical. Equal entries are not always repeated. Inconclusive results are not listed.

The test system of the experiment is BDF1 mice, colon carcinoma 38 sc, T/C %. Nature of the experiment: NCI In Vivo Anticancer Drug Screen. Data for tumor model Colon Carcinoma 38 (subcutaneous) in B6D2F1 (BDF1) mice. Conditions: endpoint: median tumor weight (est.), higher = larger tumour. A digest of the protocol: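 Ratio of survival or tumor size, compound-treated animals relative to vehicle controls, in tumor-bearing mice.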

[1] abbreviates: dose: 12.5 mg/kg/injection, schedule: Q07DX003 (ip), vehicle: saline.
Setting [2] is: dose: 25.0 mg/kg/injection, schedule: Q07DX003 (ip), vehicle: saline.
Setting [3] is: dose: 50.0 mg/kg/injection, schedule: Q07DX003 (ip), vehicle: saline.
Where [4] appears, read: dose: 200.0 mg/kg/injection, schedule: Q07DX003 (ip), vehicle: saline.
Where [5] appears, read: dose: 25.0 mg/kg/injection, schedule: Q07DX002 (ip), vehicle: saline with Tween-80.
Where [6] appears, read: dose: 200.0 mg/kg/injection, schedule: Q07DX002 (ip), vehicle: saline with Tween-80.
Where [7] appears, read: dose: 400.0 mg/kg/injection, schedule: Q07DX002 (ip), vehicle: saline with Tween-80.

As to `C#CCNC1=C(C)C(=O)C2=C(C1=O)[C@H](COC(N)=O)[C@]1(OC)[C@@H]3N[C@@H]3CN21`, the T/C was 49 % of control (dose: 1.5 mg/kg/injection, schedule: Q07DX002 (ip), vehicle: distilled water + Tween-80); 78 % of control (dose: 3.0 mg/kg/injection, schedule: Q07DX002 (ip), vehicle: distilled water + Tween-80); 20 % of control (dose: 6.0 mg/kg/injection, schedule: Q07DX002 (ip), vehicle: distilled water + Tween-80).

For `NC1(C(=O)O)CCCC1`, the T/C is 72 % of control under setting [1]; 78 % of control under setting [2]; 92 % of control under setting [3]; 66 % of control (dose: 100.0 mg/kg/injection, schedule: Q07DX003 (ip), vehicle: saline); 16 % of control under setting [4].

Take `Oc1ccc(SCc2ccc(NCc3ccccc3)cc2)cc1`: the T/C is 75 % of control (dose: 12.5 mg/kg/injection, schedule: Q07DX002 (ip), vehicle: DMSO); 82 % of control (dose: 25.0 mg/kg/injection, schedule: Q07DX002 (ip), vehicle: DMSO); 85 % of control (dose: 50.0 mg/kg/injection, schedule: Q07DX002 (ip), vehicle: DMSO); 109 % of control (dose: 100.0 mg/kg/injection, schedule: Q07DX002 (ip), vehicle: DMSO); 82 % of control (dose: 200.0 mg/kg/injection, schedule: Q07DX002 (ip), vehicle: DMSO).

As to `Brc1c(NC2=NCCN2)ccc2nccnc12`, the T/C (dose: 3.12 mg/kg/injection, schedule: Q07DX002 (ip), vehicle: saline) is 87 % of control; the T/C (dose: 6.25 mg/kg/injection, schedule: Q07DX002 (ip), vehicle: saline) is 98 % of control; the T/C (dose: 12.5 mg/kg/injection, schedule: Q07DX002 (ip), vehicle: saline) was 92 % of control; the T/C (dose: 25.0 mg/kg/injection, schedule: Q07DX002 (ip), vehicle: saline) was 82 % of control; the T/C (dose: 50.0 mg/kg/injection, schedule: Q07DX002 (ip), vehicle: saline) was 72 % of control; the T/C (dose: 100.0 mg/kg/injection, schedule: Q07DX002 (ip), vehicle: saline) was 75 % of control.

Turning to `CC(=O)C(O)N1C(=O)C=CC1=O` (stereo unspecified), the T/C runs as follows: (dose: 0.62 mg/kg/injection, schedule: Q07DX003 (ip), vehicle: saline) 109 % of control; (dose: 1.25 mg/kg/injection, schedule: Q07DX003 (ip), vehicle: saline) 76 % of control; (dose: 2.5 mg/kg/injection, schedule: Q07DX003 (ip), vehicle: saline) 111 % of control; (dose: 5.0 mg/kg/injection, schedule: Q07DX003 (ip), vehicle: saline) 108 % of control.

For `O=C1c2cccc3cc([N+](=O)[O-])cc(c23)C(=O)N1CCN1CCCC1`, the T/C was 107 % of control (dose: 3.13 mg/kg/injection, schedule: Q07DX002 (ip), vehicle: saline with Tween-80); 71 % of control (dose: 6.25 mg/kg/injection, schedule: Q07DX002 (ip), vehicle: saline with Tween-80); 84 % of control (dose: 12.5 mg/kg/injection, schedule: Q07DX002 (ip), vehicle: saline with Tween-80); 67 % of control under setting [5].

With `COc1ccc2[nH]c3ccc4cc[n+](CCN5CCC(C6CCN(CC[n+]7ccc8ccc9[nH]c%10ccc(OC)cc%10c9c8c7)CC6)CC5)cc4c3c2c1`, the T/C runs as follows: (dose: 25.0 mg/kg/injection, schedule: Q07DX002 (ip), vehicle: Klucel (hydroxypropylcellulose) (HPC)) 79 % of control; (dose: 50.0 mg/kg/injection, schedule: Q07DX002 (ip), vehicle: Klucel (hydroxypropylcellulose) (HPC)) 70 % of control; (dose: 100.0 mg/kg/injection, schedule: Q07DX002 (ip), vehicle: Klucel (hydroxypropylcellulose) (HPC)) 56 % of control.

For the molecule `C/C=C/C=C1/OC(C)=C(C(C)=O)C1=O`, the T/C was 59 % of control and 84 % of control under setting [5]; 54 % of control and 57 % of control and 69 % of control under setting [6]; 37 % of control and 62 % of control under setting [7]; 100 % of control (dose: 800.0 mg/kg/injection, schedule: Q07DX002 (ip), vehicle: saline with Tween-80).

With `COC(C(=O)C(O)C(C)O)C1CC2C=C3C=C(OC4CC(OC5CC(O)C(OC)C(C)O5)C(OC(C)=O)C(C)O4)C(C)C(=O)C3=C(O)C2=C(O)C1OC1CC(OC2CC(OC3CC(C)(O)C(O)C(C)O3)C(O)C(C)O2)C(O)C(C)O1` (stereo unspecified), the T/C is 121 % of control (dose: 1.0 mg/kg/injection, schedule: Q07DX002 (ip), vehicle: saline with Tween-80); 150 % of control (dose: 2.0 mg/kg/injection, schedule: Q07DX002 (ip), vehicle: saline with Tween-80); 112 % of control (dose: 4.0 mg/kg/injection, schedule: Q07DX002 (ip), vehicle: saline with Tween-80); 114 % of control (dose: 8.0 mg/kg/injection, schedule: Q07DX002 (ip), vehicle: saline with Tween-80); 111 % of control (dose: 16.0 mg/kg/injection, schedule: Q07DX002 (ip), vehicle: saline with Tween-80).

For the molecule `Cc1cc(O)c(N=Nc2ccc(C(=O)O)cc2)cc1C`, the T/C runs as follows: under setting [5], 108 % of control; (dose: 50.0 mg/kg/injection, schedule: Q07DX002 (ip), vehicle: saline with Tween-80) 104 % of control; (dose: 100.0 mg/kg/injection, schedule: Q07DX002 (ip), vehicle: saline with Tween-80) 100 % of control; under setting [6], 55 % of control; under setting [7], 84 % of control.

Regarding `CC1(C)COCN1COC1CCCCC1`, the T/C reads like this: (dose: 25.0 mg/kg/injection, schedule: Q07DX002 (ip), vehicle: suspension in saline) 84 % of control; (dose: 50.0 mg/kg/injection, schedule: Q07DX002 (ip), vehicle: suspension in saline) 93 % of control; (dose: 100.0 mg/kg/injection, schedule: Q07DX002 (ip), vehicle: suspension in saline) 97 % of control; (dose: 200.0 mg/kg/injection, schedule: Q07DX002 (ip), vehicle: suspension in saline) 64 % of control.

Consider `CNc1nc(N(C)C)nc(N(C)C)n1`, for which the T/C (dose: 3.12 mg/kg/injection, schedule: Q07DX003 (ip), vehicle: saline) was 114 % of control; the T/C (dose: 6.25 mg/kg/injection, schedule: Q07DX003 (ip), vehicle: saline) was 95 % of control; the T/C (dose: 6.25 mg/kg/injection, schedule: Q07DX003 (ip), vehicle: water) was 89 % of control; the T/C under setting [1] was 121 % of control; the T/C (dose: 12.5 mg/kg/injection, schedule: Q07DX003 (ip), vehicle: water) was 104 % of control; the T/C under setting [2] is 121 % of control. Besides, the T/C is 61 % of control (dose: 25.0 mg/kg/injection, schedule: Q07DX003 (ip), vehicle: water); 114 % of control under setting [3]; 158 % of control (dose: 50.0 mg/kg/injection, schedule: Q07DX003 (ip), vehicle: water); 108 % of control (dose: 100.0 mg/kg/injection, schedule: Q07DX003 (ip), vehicle: water); 32 % of control under setting [4]; 22 % of control (dose: 200.0 mg/kg/injection, schedule: Q07DX003 (ip), vehicle: water).

For `CC(C)[NH-].CC(C)[NH-].[Cl][Pt+2][Cl]`, the T/C (dose: 3.12 mg/kg/injection, schedule: Q07DX002 (ip), vehicle: dextrose) was 15 % of control; the T/C (dose: 3.13 mg/kg/injection, schedule: Q07DX002 (ip), vehicle: dextrose) is 122 % of control; the T/C (dose: 6.25 mg/kg/injection, schedule: Q07DX002 (ip), vehicle: dextrose) was 77 % of control; the T/C (dose: 6.25 mg/kg/injection, schedule: Q07DX002 (ip), vehicle: other) is 104 % of control; the T/C (dose: 12.5 mg/kg/injection, schedule: Q07DX002 (ip), vehicle: dextrose) was 71 % of control; the T/C (dose: 12.5 mg/kg/injection, schedule: Q07DX002 (ip), vehicle: other) was 53 % of control. Also, the T/C (dose: 25.0 mg/kg/injection, schedule: Q07DX002 (ip), vehicle: dextrose) is 79 % of control and 88 % of control; the T/C (dose: 25.0 mg/kg/injection, schedule: Q07DX002 (ip), vehicle: other) was 84 % of control; the T/C (dose: 50.0 mg/kg/injection, schedule: Q07DX002 (ip), vehicle: dextrose) was 58 % of control and 71 % of control; the T/C (dose: 50.0 mg/kg/injection, schedule: Q07DX002 (ip), vehicle: other) was 122 % of control; the T/C (dose: 100.0 mg/kg/injection, schedule: Q07DX002 (ip), vehicle: other) was 52 % of control.
